From patent US6867305B2, “Synthesis of epothilones, intermediates thereto and analogues thereof” (Sloan-Kettering Institute for Cancer Research, priority 1996, dated 2005)
pIC50: −log10 of the molar value. Where “and” joins values, the source holds several entries; their conditions need not be identical. Identical values can stand only once. Like-named read-outs stand apart in the source and are kept apart here.

Key:
[1] = system: HCT-116 colon carcinoma xenograft; experiment: Human tumor xenograft in nude mice; type: in vivo; conditions: for Therapeutic Effect Rank Order: HCT-116, i.v. infusion
Description: Therapeutic efficacy of cancer chemotherapeutic agents varies with various factors including the tumor models used and the dosage of drug and schedules and routes of administration. […] In the present studies, we intended to compare the therapeutic effects of drugs near their maximal tolerated doses by measuring the extent of body-weight decreases and/or lethality.
(§1) Depending on the tumor type, treatment started on day 10 to day 21 when subcutaneous tumor size reached 35-200 mm^3, except otherwise indicated. Tumor size and body-weight were recorded every other day (Q2D) and, for humane reasons, the animals were sacrificed when tumor size reached ≧10% of body-weight. Each group, including untreated control, consisted of 3-5 animals unless otherwise indicated.
(§2) Athymic nude mice bearing the nu/nu gene were used for all human tumor xenografts. Outbred, Swiss-background mice were obtained from Charles River Laboratories. Male mice 8 weeks or older weighing 22 g and up were used for most experiments. The drug was administered via the tail vein for 6 hr.-i.v. infusion. Each individual mouse was confined in a perforated Falcon polypropylene tube restrainer for drug administration. Tumor volume was assessed by measuring length×width×height (or width) using a caliper. The programmable Harvard PHD2000 syringe pump (Harvard Apparatus) with multi-track was used for i.v. infusion. […] All animal studies were conducted in accordance with the guidelines of the National Institutes of Health “Guide for the Care and Use of Animals” and the protocol approved by the Memorial Sloan-Kettering Cancer Center's Institutional Animal Care and Use Committee. In keeping with the policy of this committee for the humane treatment of tumor-bearing animals, mice were euthanized when tumors reached ≧10% of their total body weight.
(§3) Human tumor cells (5×10^6) or tumor tissue (30-50 mg) were implanted s.c. flank in nu/nu mice (Charles River Laboratories, Wilmington, Mass.). When tumor grew to a specified size, treatment was started by every-other day×5 with 6 hr i.v.-infusion, unless otherwise indicated. Tumor volume was measured with calipers in three dimensions (length×width×height or width). Body-weight changes and lethality were monitored every other day.

[2] = system: CCRF-CEM/VBL100 (vinblastine-resistant subline); experiment: Tumor cell growth inhibition in vitro (XTT, 72 h); type: cell-based, human; conditions: for cross-resistance (fold of resistance vs parent cell line): CCRF-CEM/VBL100 vs CCRF-CEM
Procedure: (§4) The fresh medium containing each drug was replenished every 7-14 days. […] In each case ,the drug-exposed cells were resuspended in fresh media for a minimum of 4 days before the experiments for the cell-growth inhibition was carried out.
(§5) The cells were cultured at an initial density of 2-5×10^4 cells per ml. They were maintained in a 5% CO2-humidified atmosphere at 37° C. in RPMI mediun 1640 (GIBCO/BRL) containing penicillin (100 units/ml), streptomycin (100 μg/ml) (GIBCO/BRL), and 5% heat-inactivated fetal bovine serum. For solid tumor cells growing in a monolayer (such as MCF-7/Adr), cytotoxicitiy of the drug was determined in 96-well microtiter plates by using the sulforhodamine B method as described by Skehan et al (23) for measuring the cellular protein content. For cells that were grown in suspension (such as CCRF-CEM and its sublines), cytotoxicitiy was measured by using the 2,-3-bis(2-methoxy-4-nitro-5-sulfophenyl)-5carboxanilide)-2H terazodium hydroxide (XTT)-microculture tetrazonium method (24) in duplicate in 96-well microtiter plates. For both methods, the absorbance of each well was measured with a microplate reader (EL-340, Bio-Tek, Burlington, Vt.). Each run entailed six or seven concentrations of the tested drugs. Dose-effect relationship data were analyzed with the median-effect plot (25) by using a previously described computer program (26).

[3] = system: UL-3-C ovarian adenocarcinoma; experiment: Tumor cell growth inhibition in vitro; type: cell-based, human
Procedure: as §4, §5

UL-3-B/Taxol = experiment: cells; conditions: Homo sapiens
[4] = system: CCRF-CEM leukemia xenograft; conditions: for body-weight reduction on day 28: CCRF-CEM-bearing nude mice, 15-azaEpoB 6 mg/kg Q2D×6
Procedure: Nude mice bearing well established CCRF-CEM tumor xenografts (average tumor size about 400 mm^3) were treated with 30 mg/kg of dEpoB or with 6 mg/kg of 15-azaEpoB, 6 hr-i.v. infusion Q2D×6 as shown in FIG. 37.
as §1, §2, §3

[5] = system: CCRF-CEM/VM1 (teniposide-resistant subline); experiment: Tumor cell growth inhibition in vitro (XTT, 72 h); type: cell-based, human; conditions: for cross-resistance (fold of resistance vs parent cell line): CCRF-CEM/VM1 vs CCRF-CEM; for pIC50: Homo sapiens
Procedure: as §4, §5

[6] = system: CCRF-CEM/Taxol (paclitaxel-resistant subline); experiment: Tumor cell growth inhibition in vitro (XTT, 72 h); type: cell-based, human; conditions: for cross-resistance (fold of resistance vs parent cell line): CCRF-CEM/Taxol vs CCRF-CEM; for pIC50: Homo sapiens, CCRF-CEM, 72 h
Procedure: as §4, §5

MCF-7/Adr = experiment: Tumor cell growth inhibition in vitro; type: cell-based, human; conditions: for pIC50: MCF-7/Adr; for cross-resistance (fold of resistance vs parent cell line): MCF-7/Adr vs MCF-7
Procedure: as §5, with “They were maintained in a 5% CO2-humidified atmosphere at 37° C. in RPMI mediun 1640 (GIBCO/BRL) containing penicillin (100 units/ml), streptomycin (100 μg/ml) (GIBCO/BRL), and 5% heat-inactivated fetal bovine serum.” left out

[7] = HCT-116, dEpoB 30 mg/kg, Taxol 20 mg/kg, Q2Dx51x3, 6-hr i.v. infusion
[8] = CCRF-CEM, i.v. infusion, FIG. 5
[9] = CCRF/CEM, dEpoB 40 mg/kg, Taxol 20 mg/kg, Q2Dx4, 6-hr i.v. infusion

| SMILES | Tumor Disappearance [1, 7] | pIC50 (UL-3-B/Taxol) | Therapeutic Effect Rank Order [4, 8] | body-weight reduction on day 28 ([4]; dEpoF 30 mg/kg) | cross-resistance (fold of resistance vs parent cell line) [2] [x] | cross-resistance (fold of resistance vs parent cell line) [5] [x] | cross-resistance (fold of resistance vs parent cell line) [6] | pIC50 ([3]; Homo sapiens, read-out: IC50) | cross-resistance (fold of resistance vs parent cell line) (MCF-7/Adr) | Therapeutic Effect Rank Order [1] | pIC50 ([2]; Homo sapiens, CCRF-CEM, 72 h) | pIC50 ([5]; CCRF-CEM, 72 h) | pIC50 [6] | pIC50 (MCF-7/Adr; Homo sapiens, NCI/ADR-RES) | pIC50 (MCF-7/Adr) | also measured |
| --- | --- | --- | --- | --- | --- | --- | --- | --- | --- | --- | --- | --- | --- | --- | --- | --- |
| CC(=O)O[C@H]1C(=O)[C@@]2(C)[C@H]([C@H](OC(=O)c3ccccc3)[C@]3(O)C[C@H](OC(=O)[C@H](O)[C@@H](NC(=O)c4ccccc4)c4ccccc4)C(C)=C1C3(C)C)[C@]1(OC(C)=O)CO[C@@H]1C[C@@H]2O [Taxol, paclitaxel, reference compound] | 3/3 |  |  |  |  |  |  |  |  |  |  |  |  |  |  | pIC50 ([2]; CCRF-CEM/VBL100, 72 h): 5.29; pIC50 [3]: 8.82; pIC50 ([3]; Homo sapiens): 8.80 |
| C/C(=C\c1csc(C)n1)C1C[C@@H]2O[C@]2(C)CCC[C@H](C)[C@H](O)[C@@H](C)C(=O)C(C)(C)C(O)CC(=O)N1 (stereo partly drawn) [aza-EpoB, aza-epothilone B] |  | 7.82 | dEpoF>>>15-azaEpoB | about 10% | 1423 | 18.6 | 81.4 x | 8.92 | 2.7 x |  |  |  |  |  |  | therapeutic effect on tumor growth ([4]; CCRF-CEM, tumor about 400 mm^3, 15-azaEpoB 6 mg/kg, 6 hr-i.v. infusion Q2D×6): Moderate suppression of tumor growth; pIC50 ([2]; Homo sapiens, CCRF-CEM/VBL100, 72 h, read-out: IC50): 5.52; cross-resistance (fold of resistance vs parent cell line) ([5]; listed as 15-aza-EpoB): 118.6 x; pIC50 ([5]; CCRF-CEM/VM1, 72 h, read-out: IC50): 7.41; pIC50 ([6]; read-out: IC50): 6.77; pIC50 (MCF-7/Adr; Homo sapiens, NCI/ADR-RES, read-out: IC50): 7.93 |
| C/C1=C/C[C@@H](/C(C)=C/c2csc(CO)n2)OC(=O)C[C@H](O)C(C)(C)C(=O)[C@H](C)[C@@H](O)[C@@H](C)CCC1 [dEpoF, 12,13-Desoxyepothilone F] |  | 8.17 | dEpoF>>>15-azaEpoB | about 10% | 17.4 | 1.8 | 2.0 x | 8.32 | 1.4 x and 1.9 x | Taxol, CPT-11≈dEpoB, dEpoF | 7.33 | 8.31 | 8.28 | 8.01 | 7.73 | tumor free mice on day 28 ([4]; CCRF-CEM, dEpoF 30 mg/kg, 6 hr-i.v. infusion Q2D×6): one of three mice was tumor free |
| C/C1=C/C[C@@H](/C(C)=C/c2csc(C)n2)OC(=O)C[C@H](O)C(C)(C)C(=O)[C@H](C)[C@@H](O)[C@@H](C)CCC1 [dEpoB, 12,13-desoxyepothilone B] | 1/2 | 8.15 |  |  |  | 1.5 | 1.7 x and 1.2 x | 8.68 |  | Taxol, CPT-11≈dEpoB, dEpoF | 7.77 | 7.85 | 7.79 | 8.15 | 7.88 | Therapeutic Effect Rank Order ([4]; CCRF-CEM, i.v. infusion (dEpoB vs Taxol)): dEpoB≈Taxol; Lowest Average Tumor Size (T/C) [4, 9]: 0; Tumor Disappearance [4, 9]: 2/2; Lowest Average Tumor Size (T/C) [1, 7]: 0 |
